Experimental data as given in PubChem BioAssay AID1259407 (Chemical Carcinogenesis Research Information System (CCRIS), 2018).
Activity calls are given as the source filed them. How the calls were made is not given here.

Test system: CCRIS mutagenicity, Ames/micronucleus/aberration tests
Test: CCRIS mutagenicity studies
[1] = Test System: AMES SALMONELLA TYPHIMURIUM, Strain/Indicator: TA98, Metabolic Activation: NONE, Method: STANDARD PLATE
[2] = Test System: AMES SALMONELLA TYPHIMURIUM, Strain/Indicator: TA100, Metabolic Activation: NONE, Method: STANDARD PLATE

## O=NN1CCC[C@H]1c1cccnc1
Test System: AMES SALMONELLA TYPHIMURIUM, Strain/Indicator: TA98, Metabolic Activation: HAMSTER, LIVER, S-9, AROCLOR 1254, Method: STANDARD PLATE
  mutagenic call: inactive; negative
[1]
  mutagenic call: inactive; negative
Test System: AMES SALMONELLA TYPHIMURIUM, Strain/Indicator: TA98, Metabolic Activation: RAT, LIVER, S-9, AROCLOR 1254, Method: STANDARD PLATE
  mutagenic call: inactive; negative
Test System: AMES SALMONELLA TYPHIMURIUM, Strain/Indicator: TA100, Metabolic Activation: HAMSTER, LIVER, S-9, AROCLOR 1254, Method: STANDARD PLATE
  mutagenic call: inactive; negative
Test System: AMES SALMONELLA TYPHIMURIUM, Strain/Indicator: TA100, Metabolic Activation: NONE, Method: PREINCUBATION
  mutagenic call: active; positive
[2]
  mutagenic call: inactive; negative
Test System: AMES SALMONELLA TYPHIMURIUM, Strain/Indicator: TA100, Metabolic Activation: RABBIT, LUNG, CLARA CELLS, Method: PREINCUBATION
  mutagenic call: inactive; negative
Test System: AMES SALMONELLA TYPHIMURIUM, Strain/Indicator: TA100, Metabolic Activation: RABBIT, LUNG, MACROPHAGES, Method: PREINCUBATION
  mutagenic call: inactive; negative
Test System: AMES SALMONELLA TYPHIMURIUM, Strain/Indicator: TA100, Metabolic Activation: RABBIT, LUNG, S-9, Method: PREINCUBATION
  mutagenic call: active; positive
Test System: AMES SALMONELLA TYPHIMURIUM, Strain/Indicator: TA100, Metabolic Activation: RABBIT, LUNG, TYPE II CELLS, Method: PREINCUBATION
  mutagenic call: inactive; negative
Test System: AMES SALMONELLA TYPHIMURIUM, Strain/Indicator: TA100, Metabolic Activation: RAT LIVER S-9, AROCLOR 1254, Method: PREINCUBATION
  mutagenic call: inactive; negative
Test System: AMES SALMONELLA TYPHIMURIUM, Strain/Indicator: TA1530, Metabolic Activation: RABBIT, LUNG, CLARA CELLS, Method: PREINCUBATION
  mutagenic call: inactive; negative
Test System: AMES SALMONELLA TYPHIMURIUM, Strain/Indicator: TA1530, Metabolic Activation: RABBIT, LUNG, MACROPHAGES, Method: PREINCUBATION
  mutagenic call: inactive; negative
Test System: AMES SALMONELLA TYPHIMURIUM, Strain/Indicator: TA1530, Metabolic Activation: RABBIT, LUNG, S-9, Method: PREINCUBATION
  mutagenic call: active; positive
Test System: AMES SALMONELLA TYPHIMURIUM, Strain/Indicator: TA1530, Metabolic Activation: RABBIT, LUNG, TYPE II CELLS, Method: PREINCUBATION
  mutagenic call: inactive; negative
Test System: AMES SALMONELLA TYPHIMURIUM, Strain/Indicator: TA1535, Metabolic Activation: HAMSTER, LIVER, S-9, AROCLOR 1254, Method: STANDARD PLATE
  mutagenic call: active; positive
Test System: AMES SALMONELLA TYPHIMURIUM, Strain/Indicator: TA1535, Metabolic Activation: NONE, Method: STANDARD PLATE
  mutagenic call: inactive; negative
Test System: AMES SALMONELLA TYPHIMURIUM, Strain/Indicator: TA1535, Metabolic Activation: RAT, LIVER, S-9, AROCLOR 1254, Method: STANDARD PLATE
  mutagenic call: inactive; negative
Test System: AMES SALMONELLA TYPHIMURIUM, Strain/Indicator: TA1537, Metabolic Activation: HAMSTER, LIVER, S-9, AROCLOR 1254, Method: STANDARD PLATE
  mutagenic call: inactive; negative
Test System: AMES SALMONELLA TYPHIMURIUM, Strain/Indicator: TA1537, Metabolic Activation: NONE, Method: STANDARD PLATE
  mutagenic call: inactive; negative
Test System: AMES SALMONELLA TYPHIMURIUM, Strain/Indicator: TA1537, Metabolic Activation: RAT, LIVER, S-9, AROCLOR 1254, Method: STANDARD PLATE
  mutagenic call: inactive; negative
Test System: AMES SALMONELLA TYPHIMURIUM, Strain/Indicator: TA1538, Metabolic Activation: HAMSTER, LIVER, S-9, AROCLOR 1254, Method: STANDARD PLATE
  mutagenic call: inactive; negative
Test System: AMES SALMONELLA TYPHIMURIUM, Strain/Indicator: TA1538, Metabolic Activation: NONE, Method: STANDARD PLATE
  mutagenic call: inactive; negative
Test System: AMES SALMONELLA TYPHIMURIUM, Strain/Indicator: TA1538, Metabolic Activation: RAT, LIVER, S-9, AROCLOR 1254, Method: STANDARD PLATE
  mutagenic call: inactive; negative
Test System: AMES SALMONELLA TYPHIMURIUM, Strain/Indicator: TA7004, Metabolic Activation: HAMSTER LIVER S-9, AROCLOR 1254, Method: PREINCUBATION
  mutagenic call: inactive; negative
Test System: AMES SALMONELLA TYPHIMURIUM, Strain/Indicator: TA7004, Metabolic Activation: NONE, Method: PREINCUBATION
  mutagenic call: active; positive
Test System: AMES SALMONELLA TYPHIMURIUM, Strain/Indicator: TA7004, Metabolic Activation: RAT LIVER S-9, AROCLOR 1254, Method: PREINCUBATION
  mutagenic call: inactive; negative
Test System: CHINESE HAMSTER V-79, Strain/Indicator: V-79 (HPRT)/6-THIOGUANINE, Metabolic Activation: RAT, HEPATOCYTES
  mutagenic call: inactive; negative
Test System: CHINESE HAMSTER V-79, Strain/Indicator: V-79 (HPRT)/6-THIOGUANINE, Metabolic Activation: RAT, LIVER, S-9, AROCLOR 1254
  mutagenic call: inactive; negative
Test System: UDS RABBIT LUNG CLARA CELLS, Strain/Indicator: THY INCORP, Metabolic Activation: NONE, Method: LIQUID SCINTILLATION COUNTING
  mutagenic call: inactive; negative
Test System: UDS RABBIT LUNG MACROPHAGES, Strain/Indicator: THY INCORP, Metabolic Activation: NONE, Method: LIQUID SCINTILLATION COUNTING
  mutagenic call: inactive; negative
Test System: UDS RABBIT LUNG TYPE II CELLS, Strain/Indicator: THY INCORP, Metabolic Activation: NONE, Method: LIQUID SCINTILLATION COUNTING
  mutagenic call: inactive; negative
Test System: UDS RODENT HEPATOCYTES, Strain/Indicator: THY INCORP (NON-S-PHASE), Method: AUTORADIOGRAPHY
  mutagenic call: active; positive

## CC(=O)Nc1ccc(Oc2ccccc2)cc1
[2]
  mutagenic call: inactive; negative
Test System: AMES SALMONELLA TYPHIMURIUM, Strain/Indicator: TA100, Metabolic Activation: RAT, LIVER, S-9, KANECLOR 500, Method: STANDARD PLATE
  mutagenic call: active; positive

## C(=NC1CCCCC1)=NC1CCCCC1
End Point: In vivo micronucleus, Test System: Bone marrow polychromatic erythrocytes, Species: Rat, Strain/Sex: F344/N/Male, Route: Intraperitoneal
  mutagenic call: inactive; negative
End Point: In vivo micronucleus, Test System: Peripheral blood normochromatic erythrocytes, Species: Mouse, Strain/Sex: B6C3F1/ Female, Route: Dermal
  mutagenic call: active; positive (significant increase in the frequency only at 3 mg/kg (p=0.003))
End Point: In vivo micronucleus, Test System: Peripheral blood normochromatic erythrocytes, Species: Mouse, Strain/Sex: B6C3F1/ Male, Route: Dermal
  mutagenic call: active; positive (results of trend test significant (p=0.003 but increase in frequency o
Test System: Ames Salmonella typhimurium, Strain/Indicator: TA97, Metabolic Activation: Hamster, liver S-9, Aroclor 1254, 10 and 30%, Method: Preincubation
  mutagenic call: inactive; negative
Test System: Ames Salmonella typhimurium, Strain/Indicator: TA97, Metabolic Activation: None, Method: Preincubation
  mutagenic call: inactive; negative
Test System: Ames Salmonella typhimurium, Strain/Indicator: TA97, Metabolic Activation: Rat, liver S-9, Aroclor 1254, 10 and 30%, Method: Preincubation
  mutagenic call: inactive; negative
Test System: Ames Salmonella typhimurium, Strain/Indicator: TA98, Metabolic Activation: Hamster, liver S-9, Aroclor 1254, 10 and 30%, Method: Preincubation
  mutagenic call: inactive; negative
Test System: Ames Salmonella typhimurium, Strain/Indicator: TA98, Metabolic Activation: None, Method: Preincubation
  mutagenic call: inactive; negative
Test System: Ames Salmonella typhimurium, Strain/Indicator: TA98, Metabolic Activation: Rat, liver S-9, Aroclor 1254, 10 and 30%, Method: Preincubation
  mutagenic call: inactive; negative
Test System: Ames Salmonella typhimurium, Strain/Indicator: TA100, Metabolic Activation: Hamster, liver S-9, Aroclor 1254, 10 and 30%, Method: Preincubation
  mutagenic call: inactive; negative
Test System: Ames Salmonella typhimurium, Strain/Indicator: TA100, Metabolic Activation: None, Method: Preincubation
  mutagenic call: inactive; negative
Test System: Ames Salmonella typhimurium, Strain/Indicator: TA100, Metabolic Activation: Rat, liver S-9, Aroclor 1254, 10 and 30%, Method: Preincubation
  mutagenic call: inactive; negative
Test System: Ames Salmonella typhimurium, Strain/Indicator: TA1535, Metabolic Activation: Hamster, liver, S-9, Aroclor 1254, 10 and 30%, Method: Preincubation
  mutagenic call: inactive; negative
Test System: Ames Salmonella typhimurium, Strain/Indicator: TA1535, Metabolic Activation: None, Method: Preincubation
  mutagenic call: inactive; negative
Test System: Ames Salmonella typhimurium, Strain/Indicator: TA1535, Metabolic Activation: Rat, liver, S-9, Aroclor 1254, 10 and 30%, Method: Preincubation
  mutagenic call: inactive; negative

## O=C1c2ccccc2CN2C(=O)c3ccccc3CN12
Test System: AMES SALMONELLA TYPHIMURIUM, Strain/Indicator: TA98, Metabolic Activation: MOUSE, LIVER, S-9, PHENOBARBITAL AND 5,6-BENZOFLAVONE, Method: STANDARD PLATE
  mutagenic call: inactive; negative
[1]
  mutagenic call: inactive; negative
Test System: AMES SALMONELLA TYPHIMURIUM, Strain/Indicator: TA100, Metabolic Activation: MOUSE, LIVER, S-9, PHENOBARBITAL AND 5,6-BENZOFLAVONE, Method: STANDARD PLATE
  mutagenic call: inactive; negative
[2]
  mutagenic call: inactive; negative
Test System: AMES SALMONELLA TYPHIMURIUM, Strain/Indicator: TA102, Metabolic Activation: MOUSE, LIVER, S-9, PHENOBARBITAL AND 5,6-BENZOFLAVONE, Method: STANDARD PLATE
  mutagenic call: inactive; negative
Test System: AMES SALMONELLA TYPHIMURIUM, Strain/Indicator: TA102, Metabolic Activation: NONE, Method: STANDARD PLATE
  mutagenic call: inactive; negative
